Measured values taken from patent US20050229276A1, “Method of producing cyclamen root tuber and method of proliferating cyclamen using the same” (Tokyo University of Agricultural, priority 2002, published 2005).

Test system: cyclamen (cultivar: Dressy Scarlet) seedling
Assay: Growth of root tubers at cut root ends of seedlings in solid media
Type: in vivo
Method: A cyclamen (cultivar: Dressy Scarlet) seed was immersed in an ethyl alcohol aqueous solution having an ethyl alcohol concentration of 70 wt % for 10 seconds and in a sodium hypochlorite solution having an effective chlorine concentration of 1 wt % for 10 minutes to sterilize the surface of the seed. Thereafter, this seed was washed in sterilized water 3 times to remove the sodium hypochlorite from the surface of the seed. This was sown in an MS solid medium containing 30 g/l of sucrose and 6 g/l of agar under a germ-free condition and cultured at a temperature of 20° C. under weak light for 30 days to be germinated and rooted.
The end portions of the roots of the above germinated and rooted cyclamen seedling were cut off with a scalpel, and the seedling was planted in the following solid media. As the media, a large number of experimental plots were prepared by adding NAA and BA as phytohormones to the ⅓ MS medium in concentrations shown in Tables 1 to 3 and further adding 30 to 90 g/l of sucrose. 6 g/l of agar was added to all of the media which were then sterilized in an autoclave to prepare media having a pH of 7.0. 10 ml of each of the solid media was placed in a 50 ml culture test tube. The stationary culture of the seedling planted in each of the media was carried out at 20° C. under weak light for a certain number of days to grow root tubers at the end portions of its roots.

[1] = sucrose 30 g/l, BA 0.1 mg/l, NAA 0.00 mg/l, 30-th day
[2] = sucrose 30 g/l, BA 0.1 mg/l, NAA 0.01 mg/l, 30-th day
[3] = sucrose 30 g/l, BA 0.1 mg/l, NAA 0.05 mg/l, 30-th day
[4] = sucrose 30 g/l, BA 1.0 mg/l, NAA 0.00 mg/l, 30-th day
[5] = sucrose 30 g/l, BA 1.0 mg/l, NAA 0.01 mg/l, 30-th day
[6] = sucrose 30 g/l, BA 1.0 mg/l, NAA 0.05 mg/l, 30-th day
[7] = sucrose 30 g/l, BA 10.0 mg/l, NAA 0.00 mg/l, 30-th day
[8] = sucrose 30 g/l, BA 10.0 mg/l, NAA 0.01 mg/l, 30-th day
[9] = sucrose 30 g/l, BA 10.0 mg/l, NAA 0.05 mg/l, 30-th day
[10] = sucrose 50 g/l, BA 0.1 mg/l, NAA 0.00 mg/l, 30-th day
[11] = sucrose 50 g/l, BA 0.1 mg/l, NAA 0.01 mg/l, 30-th day
[12] = sucrose 50 g/l, BA 0.1 mg/l, NAA 0.05 mg/l, 30-th day
[13] = sucrose 50 g/l, BA 1.0 mg/l, NAA 0.00 mg/l, 30-th day
[14] = sucrose 50 g/l, BA 1.0 mg/l, NAA 0.01 mg/l, 30-th day
[15] = sucrose 50 g/l, BA 1.0 mg/l, NAA 0.05 mg/l, 30-th day
[16] = sucrose 50 g/l, BA 10.0 mg/l, NAA 0.00 mg/l, 30-th day
[17] = sucrose 50 g/l, BA 10.0 mg/l, NAA 0.01 mg/l, 30-th day

## c1ccc(CNc2ncnc3[nH]cnc23)cc1 [BA, benzylaminopurine]
BA 0.0 mg/l, sucrose 30 g/l, NAA 0.05 mg/l, 23 roots cut off, 30-th day
  Number of grown root tubers: 23
BA 0.0 mg/l, sucrose 30 g/l, NAA 0.05 mg/l, 30-th day
  Enlarging ratio (diameter of root tuber vs root at start = 1): 8.4
BA 0.1 mg/l, sucrose 30 g/l, NAA 0.05 mg/l, 17 roots cut off, 30-th day
  Number of grown root tubers: 17
BA 0.1 mg/l, sucrose 30 g/l, NAA 0.05 mg/l, 30-th day
  Enlarging ratio (diameter of root tuber vs root at start = 1): 2.3
BA 0.1 mg/l, sucrose 50 g/l, NAA 0.05 mg/l, 17 roots cut off, 30-th day
  Number of grown root tubers: 16
BA 0.1 mg/l, sucrose 50 g/l, NAA 0.05 mg/l, 30-th day
  Enlarging ratio (diameter of root tuber vs root at start = 1): 3.2
BA 0.1 mg/l, sucrose 70 g/l, NAA 0.05 mg/l, 21 roots cut off, 30-th day
  Number of grown root tubers: 21
BA 0.1 mg/l, sucrose 70 g/l, NAA 0.05 mg/l, 30-th day
  Enlarging ratio (diameter of root tuber vs root at start = 1): 3.8
BA 0.1 mg/l, sucrose 90 g/l, NAA 0.05 mg/l, 18 roots cut off, 30-th day
  Number of grown root tubers: 18
BA 0.1 mg/l, sucrose 90 g/l, NAA 0.05 mg/l, 30-th day
  Enlarging ratio (diameter of root tuber vs root at start = 1): 5.0
BA 0.5 mg/l, sucrose 30 g/l, NAA 0.05 mg/l, 20 roots cut off, 30-th day
  Number of grown root tubers: 20
BA 0.5 mg/l, sucrose 30 g/l, NAA 0.05 mg/l, 30-th day
  Enlarging ratio (diameter of root tuber vs root at start = 1): 6.6
BA 0.5 mg/l, sucrose 50 g/l, NAA 0.05 mg/l, 21 roots cut off, 30-th day
  Number of grown root tubers: 20
BA 0.5 mg/l, sucrose 50 g/l, NAA 0.05 mg/l, 30-th day
  Enlarging ratio (diameter of root tuber vs root at start = 1): 9.5
BA 0.5 mg/l, sucrose 70 g/l, NAA 0.05 mg/l, 25 roots cut off, 30-th day
  Number of grown root tubers: 25
BA 0.5 mg/l, sucrose 70 g/l, NAA 0.05 mg/l, 30-th day
  Enlarging ratio (diameter of root tuber vs root at start = 1): 7.2
BA 0.5 mg/l, sucrose 90 g/l, NAA 0.05 mg/l, 16 roots cut off, 30-th day
  Number of grown root tubers: 16
BA 0.5 mg/l, sucrose 90 g/l, NAA 0.05 mg/l, 30-th day
  Enlarging ratio (diameter of root tuber vs root at start = 1): 6.0
BA 1.0 mg/l, sucrose 50 g/l, NAA 0.05 mg/l, 24 roots cut off, 30-th day
  Number of grown root tubers: 23
BA 1.0 mg/l, sucrose 50 g/l, NAA 0.05 mg/l, 30-th day
  Enlarging ratio (diameter of root tuber vs root at start = 1): 6.3
BA 1.0 mg/l, sucrose 70 g/l, NAA 0.05 mg/l, 17 roots cut off, 30-th day
  Number of grown root tubers: 17
BA 1.0 mg/l, sucrose 70 g/l, NAA 0.05 mg/l, 30-th day
  Enlarging ratio (diameter of root tuber vs root at start = 1): 5.4
BA 1.0 mg/l, sucrose 90 g/l, NAA 0.05 mg/l, 4 roots cut off, 30-th day
  Number of grown root tubers: 3
BA 1.0 mg/l, sucrose 90 g/l, NAA 0.05 mg/l, 30-th day
  Enlarging ratio (diameter of root tuber vs root at start = 1): 3.8
[1]
  Number of large root tubers (diameter of 1 mm or more): 4
  Total number of root tubers: 18
[2]
  Number of large root tubers (diameter of 1 mm or more): 5
  Total number of root tubers: 15
[3]
  Number of large root tubers (diameter of 1 mm or more): 5
  Total number of root tubers: 15
[4]
  Number of large root tubers (diameter of 1 mm or more): 2
  Total number of root tubers: 6
[5]
  Number of large root tubers (diameter of 1 mm or more): 3
  Total number of root tubers: 5
[6]
  Number of large root tubers (diameter of 1 mm or more): 6
  Total number of root tubers: 7
[7]
  Number of large root tubers (diameter of 1 mm or more): 6
  Total number of root tubers: 11
[8]
  Number of large root tubers (diameter of 1 mm or more): 5
  Total number of root tubers: 5
[9]
  Number of large root tubers (diameter of 1 mm or more): 4
  Total number of root tubers: 8
[10]
  Number of large root tubers (diameter of 1 mm or more): 1
  Total number of root tubers: 2
[11]
  Number of large root tubers (diameter of 1 mm or more): 0
  Total number of root tubers: 1
[12]
  Average number of root tubers (per a seedling): 2.8
  Number of large root tubers (diameter of 1 mm or more): 7
  Total number of root tubers: 14
Sucrose 50 g/l, BA 0.1 mg/l, NAA 0.05 mg/l, 50-th day
  Average number of root tubers (per a seedling): 2.8
[13]
  Number of large root tubers (diameter of 1 mm or more): 11
  Total number of root tubers: 16
[14]
  Number of large root tubers (diameter of 1 mm or more): 11
  Total number of root tubers: 16
[15]
  Average number of root tubers (per a seedling): 4.8
  Number of large root tubers (diameter of 1 mm or more): 4
  Total number of root tubers: 9
Sucrose 50 g/l, BA 1.0 mg/l, NAA 0.05 mg/l, 50-th day
  Average number of root tubers (per a seedling): 4.8
Sucrose 50 g/l, BA 2.0 mg/l, NAA 0.05 mg/l, 30-th day
  Average number of root tubers (per a seedling): 0.6
Sucrose 50 g/l, BA 2.0 mg/l, NAA 0.05 mg/l, 50-th day
  Average number of root tubers (per a seedling): 0.6
Sucrose 50 g/l, BA 5.0 mg/l, NAA 0.05 mg/l, 30-th day
  Average number of root tubers (per a seedling): 1.8
Sucrose 50 g/l, BA 5.0 mg/l, NAA 0.05 mg/l, 50-th day
  Average number of root tubers (per a seedling): 1.8
[16]
  Number of large root tubers (diameter of 1 mm or more): 6
  Total number of root tubers: 7
[17]
  Number of large root tubers (diameter of 1 mm or more): 3
  Total number of root tubers: 10
